The source made the active and inactive calls. The rule behind the calls is not given here.
Biological target: 3',5'-cyclic-AMP phosphodiesterase 4D (Homo sapiens, UniProt Q08499)
Assay: Inhibition of PDE4D2 (86-413) (unknown origin) expressed in Escherichia coli BL21 assessed as using [3H]-cAMP as substrate measured for 15 mins by liquid scintillation counting analysis
Settings: not given

Chain of 3',5'-cyclic-AMP phosphodiesterase 4D (Q08499 whole entry): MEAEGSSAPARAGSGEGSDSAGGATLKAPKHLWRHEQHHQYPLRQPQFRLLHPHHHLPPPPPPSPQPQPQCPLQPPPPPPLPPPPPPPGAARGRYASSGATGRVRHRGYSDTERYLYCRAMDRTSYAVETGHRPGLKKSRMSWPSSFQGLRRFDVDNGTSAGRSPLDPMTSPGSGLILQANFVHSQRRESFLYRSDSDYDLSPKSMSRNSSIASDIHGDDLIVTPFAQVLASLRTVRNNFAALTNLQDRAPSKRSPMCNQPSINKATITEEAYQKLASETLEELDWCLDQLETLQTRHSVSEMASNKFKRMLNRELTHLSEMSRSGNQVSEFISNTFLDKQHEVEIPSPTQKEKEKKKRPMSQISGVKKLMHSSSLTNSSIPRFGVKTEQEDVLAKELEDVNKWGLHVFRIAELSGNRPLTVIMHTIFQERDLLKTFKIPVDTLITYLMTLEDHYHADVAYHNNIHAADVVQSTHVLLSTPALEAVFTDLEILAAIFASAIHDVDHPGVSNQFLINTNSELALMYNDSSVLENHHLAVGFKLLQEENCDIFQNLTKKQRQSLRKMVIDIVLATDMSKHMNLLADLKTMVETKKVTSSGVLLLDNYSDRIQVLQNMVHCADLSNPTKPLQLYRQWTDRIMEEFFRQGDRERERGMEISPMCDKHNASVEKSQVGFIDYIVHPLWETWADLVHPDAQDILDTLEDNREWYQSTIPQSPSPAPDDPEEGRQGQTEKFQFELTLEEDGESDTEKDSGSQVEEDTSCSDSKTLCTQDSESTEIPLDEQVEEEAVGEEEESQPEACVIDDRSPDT

SMILES | IC50 [nM]
COc1c(O)cc2oc3cc4c(c(OC/C=C/C(=O)O)c3c(=O)c2c1CC=C(C)C)C=CC(C)(C)O4 | 494
COc1c(OCc2cccc(F)c2)cc2oc3cc4c(c(OC/C=C/C(=O)O)c3c(=O)c2c1CC=C(C)C)C=CC(C)(C)O4 | > 1000
COc1c(O)cc2oc3cc4c(c(OCCCCC(=O)O)c3c(=O)c2c1CC=C(C)C)C=CC(C)(C)O4 | 24
COc1c(OCc2ccc(F)cc2)cc2oc3cc4c(c(OCCCC(=O)O)c3c(=O)c2c1CC=C(C)C)C=CC(C)(C)O4 | 4.2
COc1cccc(COc2cc3oc4cc5c(c(OC/C=C/C(=O)O)c4c(=O)c3c(CC=C(C)C)c2OC)C=CC(C)(C)O5)c1 | 16
CCOC(=O)/C=C/COc1c2c(cc3oc4cc(OCc5cccc(F)c5)c(OC)c(CC=C(C)C)c4c(=O)c13)OC(C)(C)C=C2 | 6.5
COc1cc2oc3cc4c(c(OC/C=C/C(=O)O)c3c(=O)c2c(CC=C(C)C)c1OC)C=CC(C)(C)O4 | 30
COc1c(OCCCCCCC(=O)O)cc2oc3cc4c(c(O)c3c(=O)c2c1CC=C(C)C)C=CC(C)(C)O4 | 19
COc1c(OCc2cccc(C)c2)cc2oc3cc4c(c(OC/C=C/C(=O)O)c3c(=O)c2c1CC=C(C)C)C=CC(C)(C)O4 | > 1000
CCOc1cc2oc3cc4c(c(OC/C=C/C(=O)O)c3c(=O)c2c(CC=C(C)C)c1OC)C=CC(C)(C)O4 | 48
COc1c(O)cc2oc3cc4c(c(OCCCCCCC(=O)O)c3c(=O)c2c1CC=C(C)C)C=CC(C)(C)O4 | 300
COc1c(O)cc2oc3cc4c(c(OCCCC(=O)O)c3c(=O)c2c1CC=C(C)C)C=CC(C)(C)O4 | > 1000
COc1c(O)cc2oc3cc4c(c(OCCCCCC(=O)O)c3c(=O)c2c1CC=C(C)C)C=CC(C)(C)O4 | 25
COc1c(OCc2ccc(S(C)(=O)=O)cc2)cc2oc3cc4c(c(OC/C=C/C(=O)O)c3c(=O)c2c1CC=C(C)C)C=CC(C)(C)O4 | 18
COc1c(OCc2ccc(F)cc2)cc2oc3cc4c(c(OC/C=C\C(=O)O)c3c(=O)c2c1CC=C(C)C)C=CC(C)(C)O4 | 20
CCOC(=O)/C=C/COc1c2c(cc3oc4cc(OCc5ccc(F)cc5)c(OC)c(CC=C(C)C)c4c(=O)c13)OC(C)(C)C=C2 | 24
COc1c(O)cc2oc3cc4c(c(OCC(=O)O)c3c(=O)c2c1CC=C(C)C)C=CC(C)(C)O4 | 17
COc1c(OC(C)C)cc2oc3cc4c(c(OC/C=C/C(=O)O)c3c(=O)c2c1CC=C(C)C)C=CC(C)(C)O4 | 31
COc1c(OCc2ccccc2)cc2oc3cc4c(c(OC/C=C/C(=O)O)c3c(=O)c2c1CC=C(C)C)C=CC(C)(C)O4 | 24

System: not listed separately
Assay: Toxicity in dog assessed as emesis at 1 mg/kg, po
Format: organism-based, Canis lupus familiaris
Settings: in vivo

SMILES | Activity
COc1ccc(C2CNC(=O)C2)cc1OC1CCCC1 (stereo not given) [ROLIPRAM] | Toxic

System: Rattus norvegicus
Assay: Anti-idiopathic pulmonary fibrotic activity in bleomycin-induced Sprague-Dawley rat model assessed as prevention of structural damage of lungs at 150 mg/kg, po treated for 28 consecutive days by Hematoxylin and eosin staining based assay relative to control
Format: functional, organism-based
Settings: not given

SMILES | Activity
Cc1ccc(=O)n(-c2ccccc2)c1 [PIRFENIDONE] | Active

System: Rattus norvegicus
Assay: Anti-idiopathic pulmonary fibrotic activity in bleomycin-induced Sprague-Dawley rat model assessed as inhibition of collagen deposition around trachea and cell hyperplasia at 150 mg/kg, po treated for 28 consecutive days by Hematoxylin and eosin staining based assay relative to control
Format: functional
Settings: not given

SMILES | inhibition in vivo at 150 mg/kg [%]
Cc1ccc(=O)n(-c2ccccc2)c1 [PIRFENIDONE] | 100

System: Rattus norvegicus
Assay: Anti-idiopathic pulmonary fibrotic activity in bleomycin-induced Sprague-Dawley rat model assessed as decrease in alpha-smooth muscle actin protein expression of lungs at 150 mg/kg, po treated for 28 consecutive days by Western blot analysis
Format: functional, organism-based
Settings: not given

SMILES | Activity
Cc1ccc(=O)n(-c2ccccc2)c1 [PIRFENIDONE] | Active

System: Rattus norvegicus
Assay: Anti-idiopathic pulmonary fibrotic activity in bleomycin-induced Sprague-Dawley rat model assessed as decrease in fibronectin expression of lungs at 150 mg/kg, po treated for 28 consecutive days by Western blot analysis
Format: functional, organism-based
Settings: not given

SMILES | Activity
Cc1ccc(=O)n(-c2ccccc2)c1 [PIRFENIDONE] | Active

System: Rattus norvegicus
Assay: Anti-inflammatory activity in bleomycin-induced idiopathic pulmonary fibrotic activity Sprague-Dawley rat model assessed as decrease in NO production in lungs at 150 mg/kg, po treated for 28 consecutive days
Format: functional, organism-based
Settings: not given

SMILES | Activity
Cc1ccc(=O)n(-c2ccccc2)c1 [PIRFENIDONE] | Active
